“Also recorded” adds a separate entry of the source. Bridges are numbered along the chain shown (N, C = ends).

Data set [1] concerns PC12 cells. Briefly: NGF-dependent survival of PC12 cells. The data set is classed as cell-based, rat.
Data set [2] deals with T1, NGF (Mus musculus, UniProt P01139).
T1 construct: homodimer
Briefly: Circular dichroism of NGF. To be noted: 100 μM, 22° C. Here is the method:
(§1) For conformation and dimer integrity studies, 0.1 nM ^125 I-NGF was incubated in the presence or absence of Zn^2+ in HKR buffer for 2 hours at 4° C. in a total volume of 0.1 ml. For crosslinking NGF […], 0.4 mM BS^3 was added to the mixture and incubated for 30 minutes at 25° C. The reaction was quenched with reducing SDS PAGE sample buffer, electrophoresed using a linear 15% acrylamide gel and autoradiographed. To assess the dimeric nature of NGF in the presence of Zn^2+, ^125 I-NGF was electrophoresed in a non-reducing SDS PAGE system as described, autoradiographed, and the labelled proteins excised from the gels and counted. For CD studies, NGF (50 μg/ml) was dissolved in 50 mM Tris-HCl buffer and spectra recorded using a computer controlled Jasco J-600 spectropolarimeter. Samples were acquired in the absence or presence of Zn^2+ (100 μM) at 22° C. in a 2 mm quartz cell averaged over eight scans. Modification of His residues by DEPC was carried out as previously described, where the molar excess of DEPC added and the extent of reaction was determined by evaluating the loss of binding activity of the modified product.
For orientation: Circular dichroism is the unequal absorption of left and right circularly polarised light.

Data set [3] relates to T2, p75^NTR and TrkA.
T2 construct: these cells express both NGF receptor types; endogenous in cells; host or cells: PC12 rat pheochromocytoma cells
As to the kind of experiment: Binding of 125I-NGF to PC12 cells (p75NTR + TrkA). More on the design: species or system rat. To be noted: 100 μM; CaEDTA together with Zn2+. Here is the method:
(§2) PC12 cells were grown in RPMI with 10% heat inactivated donor horse serum and 5% fetal calf serum. […] The tubes were incubated for 2 hr at 4° C. and 100 μl aliquots (providing triplicate data points for each sample) were transferred to 400 μl microcentrifuges containing 200 μl of 10% glycerol in HKR. Tubes were centrifuged for 2 minutes at 5,000 rpm, the tip containing the cell pellet cut off and radioactivity bound to the cells was determined.
T2 sequence (P01139 122-239): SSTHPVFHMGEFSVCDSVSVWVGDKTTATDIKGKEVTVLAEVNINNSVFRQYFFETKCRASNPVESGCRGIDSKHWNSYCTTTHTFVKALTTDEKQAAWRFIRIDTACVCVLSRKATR

The test system of data set [4] is p75^NTR and TrkA. Briefly: Binding of 125I-NGF to PC12 cells (p75NTR + TrkA). On the set-up: species or system rat. To be noted: above 100 μM. Here is the method:
as §2

In data set [5] the target is T3, p75^NTR and TrkA (Mus musculus, UniProt P01139).
T3 construct: these cells express both NGF receptor types; endogenous in cells; host or cells: PC12 rat pheochromocytoma cells
Briefly: Binding of 125I-NGF to PC12 cells (p75NTR + TrkA). On the set-up: species or system rat. To be noted: 120 min; for steady-state specific binding of 125I-NGF (0.5 nM) to p75NTR and TrkA: ± SEM. As for the experimental part:
as §2

Data set [6] has as its system NGF dimer. Briefly: NGF dimer stability by non-reducing gel electrophoresis. More on the design: species or system mouse. Here is the method:
as §1

The test system of data set [7] is TrkA receptor. Briefly: Inhibition of TrkA phosphorylation by R11 in PC12 cells (Example 3). The data set is classed as cell-based, rat. Here is the method: Referring to FIG. 7C, the ability of R11 to influence TrkA phosphorylation was determined by incubating 10^7 PC12 cells (prepared as described above) in one mL HKR buffer with 50 ng NGF and the indicated concentrations of peptides for 15 min at 37° C. The cells were isolated by centrifugation, solubilized in lysis buffer and the TrkA receptor isolated as described above. The TrkA immunoprecipitated was dissociated in SDS reducing sample buffer and electrophoresed using a 6% polyacrylamide gel. The gel was then transferred to PVDF membrane (BioRad), probed with horseradish peroxidase-conjugated anti phosphotyrosine (RC20; Transduction) and developed using ECL (Amersham). All procedures were carried out according to the manufacturers' instructions.

In data set [8] the test system is kindling-induced seizures. As to the kind of experiment: Kindling (seizure development) in rats. The data set is classed as in vivo, Male Long-Evans hooded rats. Conditions: intraventricular infusion; peptide 45 μM, anti-NGF 100 μg/day.
Protocol: The effect of the present neurotrophin-derived peptides on kindling was determined as follows.
Male Long-Evans hooded rats (300-400 g) were used. The animals were housed individually, maintained on an ad lib feeding schedule and kept on a 12 h on/12 h off light cycle. The rats were anaestetised with 0.1 mL per 100 g body weight of 100 mg/mL ketamine hydrochloride (Roger/STB Inc., London, Canada) and 0.05 mL per 100 g body weight of 20 mg/mL xylocaine 2% hydrochloride (Astra, Mississauga, Canada), and then placed in a stereotaxic holder. […] Following implantation of the electrode, a cannula (Alzet brain infusion kit, Alza Corp.) was implanted in the lateral ventricle, 5 mm below the skull surface, at 0.6 mm caudal to bregma and 1.3 mm lateral to the midline. It was firmly attached to the skull with dental cement and anchored with tee stainless steel screws. […] Histological examination of lateral ventricle sections was done to confirm that the cannula was correctly placed. […] There were five groups of test animals, 5 animals per peptide test group, 10 animals in the negative control group and 12 animals in the positive control group. […]
Following a three-day recovery, the kindling stimulations were started. […] Progression of kindling was monitored behaviorally and electrophysiologically by recording the behavioral seizure stages and the duration and magnitude of afterdischarges.

T3 sequence (P01139 122-239): as above
T1 sequence (P01139 122-239): as above

In the case of `[Zn+2]` [Zn^2+], the “NGF-mediated survival of PC12 cells” value in data set [1] (100 μM, serum-free, CaEDTA together with Zn2+) is on record as “reduced signifcantly”. For the same compound, the “Antagonism of NGF-dependent survival” value in data set [1] (high (1 nM) or low (50 pM) NGF) was “ability to antagonize the NGF-dependant survival”. Further, the “Survival @ 50 pM NGF” value in data set [1] (rat, pc12 cells, 100 µM) stood at 67 ± 19 % control. Moreover, the “Survival @ 1 nM NGF” value in data set [1] (rat, pc12 cells, 100 µM) is 84 ± 39 % control. For the same compound, the “Mean molar ellipticity of NGF by CD” value in data set [2] was “significant decrease”. Further, the “Inhibition of 125I-NGF binding” value in data set [3] is given as “effectively blocked binding”. Besides, the “Non-specific binding of 125I-NGF” value in data set [4] was “altered non-specific binding”. Moreover, the “steady-state specific binding of 125I-NGF (0.5 nM) to p75NTR and TrkA” value is 88 ± 13 % Control in data set [5] (10 μM), 82 ± 10 % Control in data set [5] (30 μM), 44 ± 13 % Control in data set [5] (50 μM) and 19 ± 9 % Control in data set [5] (100 μM). Besides, the “Total Binding to PC12 cells” value in data set [5] (100 μM, 125I-NGF) stood at 21 ± 5 % control. Besides, the “Percentage of NGF migrating as a dimer in non-reducing gel electrophoresis” value in data set [6] is on record as “No change”.

As for “NH2 -Cys-Gly-Ser-Glu-Val-Pro-Asn-Ser-Ala-Arg-Cys-Cys-Val-Cys-OH (H-CGSEVPNSARCCVC-OH; disulfide 1-14, 11-12) [R11, bicyclic peptide of NGF residues 68-58/108-110, two disulfide bonds]”, the “NGF-induced TrkA phosphorylation” value in data set [7] (200 μM, 50 ng NGF, 15 min at 37° C., PC12) was “abolished; also recorded: blocked”. For the same compound, the “Basal TrkA phosphorylation” value in data set [7] (no NGF) was “no influence”. Also, in data set [8], the “Delay of the onset of kindling (number of stimulations to stage-5 seizures)” value was “approximately equal to that of the anti-NGF IgG”.

These data come from patent US6291247A, “Methods of screening for factors that disrupt neurotrophin conformation and reduce neurotrophin biological activity” (priority 1996, dated 2001).
